Results as given in EP1067939B1, “USE OF STEROIDAL ALKALOID DERIVATIVES AS INHIBITORS OF HEDGEHOG PROTEIN SIGNALING PATHWAYS” (The Johns Hopkins University, priority 1998, dated 1999).

Experiments:
Ptc -/- MEFs = experiment: β-galactosidase activity in ptc-lacZ mouse embryonic fibroblasts; assay type: cell-based; conditions: Ptc -/- MEFs 21-4, 16 hours (Figure 15)
Excerpt: These studies involve the use of mouse embryonic fibroblasts (MEFs) that were generated by trypsin digestion of E8.5 embryos from patched (ptc) +/- matings.
The MEF line 23-4 is heterozygous for ptc-lacZ, and thus contains one functional ptc allele capable of maintaining a repressed state of the pathway, but will express lacZ when the pathway is activated by addition of Shh protein (see Figure 12).

vibrissa follicle = experiment: Vibrissa follicle explant cultures; assay type: cell-based, mouse
Protocol: Vibrissa follicle explants were established using CD- I mouse embryos at 13.5 days of gestation according to a previously described protocol (Hirai et al., 1989), with minor midifications. Vibrissa pads were transferred onto Nuclepore filters (13 mm, 8 µm pores), and floated on, 2 ml of medium [DMEM (Life Technologies. Gaithersburg, MD) + Ham's F12 medium (Life Technologies) (1:1), with 1% FCS (Intergen, Purchase. NY), penicillin (50 units/ml) and streptomycin (50 gg/ml) (Life Technologies)] in 6-well plates. […] Explants were fed fresh medium every two days. Microdissection was performed with the aid of a Nikon SMZ-2T stereomicroscope and photomicrographs were taken using an Olympus OM-4 camera. Cycloparnine was stored at -20 as a 10 mM stock in 95% EtOH.
RNA was obtained by solubilizing individual explants in TriZol (Life Sciences) and isolating as recommended by the manufacturer. cDNA was synthesized using SuperScript II Rnase H reverse transcriptase with random primers (Life Technologies), and RT-PCR performed using the following primers: MHKA1 (318 bp product), (forward 5'-[…]-3' and reverse 5'-[…]-3'); hacl-1 (308 bp product), (forward 5'-[…].3 and reverse 5'-[…]-3'); profilaggrin (330 bp product), (forward 5-[…]-3' and reverse 5'-[…]-3') (Bickenbach et al., 1995); P actin (421 bp product), (for-ward 5'-[…]-3' and reverse 5'[…]-3') (Walterhouse et al., 1993). The following PCR conditions were used for MHKA1. […]
Explants were established using vibrissa pads obtained from mice at 13.5 days of gestation (Hirai et al., 1989). […] These follicles contained hair shafts and expressed genes encoding mouse hair keratin A I (MHKA 1) (Kaytes et al., 199 1) and a hair cortex-specific marker Hacl- 1 (Huh et al., 1994), detected by RT-PCR (Fig. 11B). […] In keeping with our results obtained using Shh mutant skin, hair-specific transcripts are detected in cycloparnine-treated grafts (Fig. 11B) despite their altered development, providing further support for the notion that biochemical differentiation of the follicle is not necessarily coupled to its morphogenesis.

[1] = cultured vibrissa explants, RT-PCR

SMILES | reduction of β-galactosidase activity (Ptc -/- MEFs) | late-stage follicle differentiation markers (vibrissa follicle; [1]) | profilaggrin mRNA (epidermal differentiation) (vibrissa follicle; [1]) | Morphogenesis of vibrissa follicles (vibrissa follicle; cyclopamine present in the medium for the duration of the experiment, concentration printed as I ∼M)
C[C@H]1CC[C@]2(NC1)O[C@H]1C[C@H]3[C@@H]4CC[C@H]5C[C@@H](O)CC[C@]5(C)[C@H]4CC[C@]3(C)[C@H]1[C@@H]2C [Tomatidine, tomatidine] | cannot he achieved |  |  | 
CC1=C2C[C@H]3[C@@H](CC=C4C[C@@H](O)CC[C@@]43C)[C@@H]2CC[C@]12O[C@@H]1C[C@H](C)CN[C@H]1[C@H]2C [Cyclopamine, cyclopamine] |  | detected | accumulate profilaggrin mRNA | blocked
